Measurements: BindingDB's records for doi:10.1016/j.bmcl.2008.02.026 (Irbm/Merck Research Laboratories, 2008)

Molecular target: T1, Histone deacetylase 6 (Homo sapiens, UniProt Q9UBN7)
T1 sequence (Q9UBN7 whole entry): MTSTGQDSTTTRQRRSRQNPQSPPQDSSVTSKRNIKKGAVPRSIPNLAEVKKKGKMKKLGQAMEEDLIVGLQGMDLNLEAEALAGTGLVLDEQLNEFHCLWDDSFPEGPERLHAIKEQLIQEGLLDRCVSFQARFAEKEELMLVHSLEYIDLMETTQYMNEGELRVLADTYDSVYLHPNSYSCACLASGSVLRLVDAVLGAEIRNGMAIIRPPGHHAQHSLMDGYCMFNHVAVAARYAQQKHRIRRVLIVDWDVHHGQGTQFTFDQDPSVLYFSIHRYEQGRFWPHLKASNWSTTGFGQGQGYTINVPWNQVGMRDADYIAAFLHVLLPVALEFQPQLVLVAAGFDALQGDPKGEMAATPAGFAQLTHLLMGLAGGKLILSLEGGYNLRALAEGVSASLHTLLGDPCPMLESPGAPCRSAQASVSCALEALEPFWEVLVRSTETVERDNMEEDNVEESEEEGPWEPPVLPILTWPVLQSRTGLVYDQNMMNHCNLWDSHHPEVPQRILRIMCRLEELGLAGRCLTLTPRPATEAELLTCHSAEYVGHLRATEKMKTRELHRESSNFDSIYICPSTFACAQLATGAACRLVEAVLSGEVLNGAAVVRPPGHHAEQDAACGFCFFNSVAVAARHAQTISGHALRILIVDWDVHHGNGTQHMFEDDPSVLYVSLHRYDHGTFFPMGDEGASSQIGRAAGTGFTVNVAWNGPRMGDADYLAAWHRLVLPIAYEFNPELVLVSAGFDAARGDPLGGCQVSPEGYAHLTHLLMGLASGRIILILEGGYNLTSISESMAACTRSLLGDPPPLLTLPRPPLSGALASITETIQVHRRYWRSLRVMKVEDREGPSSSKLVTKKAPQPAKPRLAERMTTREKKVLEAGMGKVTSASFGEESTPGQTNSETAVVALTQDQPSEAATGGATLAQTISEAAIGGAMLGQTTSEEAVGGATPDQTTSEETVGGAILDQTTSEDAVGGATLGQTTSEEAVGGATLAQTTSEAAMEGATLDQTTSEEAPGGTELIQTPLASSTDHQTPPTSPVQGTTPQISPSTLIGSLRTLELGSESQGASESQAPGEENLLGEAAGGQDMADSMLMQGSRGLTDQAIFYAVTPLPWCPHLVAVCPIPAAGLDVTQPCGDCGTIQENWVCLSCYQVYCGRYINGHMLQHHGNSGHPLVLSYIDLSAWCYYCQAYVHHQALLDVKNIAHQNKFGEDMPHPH
Assay: HDAC Activity Assay
Settings: 25 °C
Method: The Fluor-de-Lys HDAC activity assay kit (Biomol) was used. Purified recombinant HDAC enzyme was incubated with Fluor-de-Lys substrate in the presence of test compounds. Fluor-de-Lys Developer was then added, and the mixture was incubated for another 10 min at room temperature. Fluorescence was measured using a fluorescent plate reader, with excitation 360 nm and emission 460 nm.

IC50: 4.2 µM
SMILES: NC(=O)c1ccc(C(=O)C(F)(F)F)cn1 [5-(2,2,2-trifluoroacetyl)pyridine-2-carboxamide]
